Test results published in ChEMBL document CHEMBL4000195, “Design and synthesis of novel 7-aminosubstituted pyrido[2,3-b]pyrazines exhibiting anti-breast cancer activity” (Eur J Med Chem, 2017).
Active and inactive are the calls of the source. The rule behind the calls is not given here.

Experiments:
T47D = assay: Cytotoxicity against human T47D cells at 5 uM by MTT assay; type: functional
MDA-MB-231 = assay: Cytotoxicity against human MDA-MB-231 cells by MTT assay; type: functional, cell-based
SK-BR-3 = assay: Cytotoxicity against human SKBR3 cells by MTT assay; type: functional, cell-based
[1] = molecular target: Dual specificity tyrosine-phosphorylation-regulated kinase 1A (Rattus norvegicus) (UniProt Q63470); assay: Inhibition of rat DYRK1A using myelin basic protein as substrate in presence of [gamma33P]ATP after 30 mins by scintillation counting method
[2] = molecular target: T1, Serine/threonine-protein kinase haspin (Homo sapiens) (UniProt Q8TF76); assay: Inhibition of human HASPIN
T1 sequence (whole entry): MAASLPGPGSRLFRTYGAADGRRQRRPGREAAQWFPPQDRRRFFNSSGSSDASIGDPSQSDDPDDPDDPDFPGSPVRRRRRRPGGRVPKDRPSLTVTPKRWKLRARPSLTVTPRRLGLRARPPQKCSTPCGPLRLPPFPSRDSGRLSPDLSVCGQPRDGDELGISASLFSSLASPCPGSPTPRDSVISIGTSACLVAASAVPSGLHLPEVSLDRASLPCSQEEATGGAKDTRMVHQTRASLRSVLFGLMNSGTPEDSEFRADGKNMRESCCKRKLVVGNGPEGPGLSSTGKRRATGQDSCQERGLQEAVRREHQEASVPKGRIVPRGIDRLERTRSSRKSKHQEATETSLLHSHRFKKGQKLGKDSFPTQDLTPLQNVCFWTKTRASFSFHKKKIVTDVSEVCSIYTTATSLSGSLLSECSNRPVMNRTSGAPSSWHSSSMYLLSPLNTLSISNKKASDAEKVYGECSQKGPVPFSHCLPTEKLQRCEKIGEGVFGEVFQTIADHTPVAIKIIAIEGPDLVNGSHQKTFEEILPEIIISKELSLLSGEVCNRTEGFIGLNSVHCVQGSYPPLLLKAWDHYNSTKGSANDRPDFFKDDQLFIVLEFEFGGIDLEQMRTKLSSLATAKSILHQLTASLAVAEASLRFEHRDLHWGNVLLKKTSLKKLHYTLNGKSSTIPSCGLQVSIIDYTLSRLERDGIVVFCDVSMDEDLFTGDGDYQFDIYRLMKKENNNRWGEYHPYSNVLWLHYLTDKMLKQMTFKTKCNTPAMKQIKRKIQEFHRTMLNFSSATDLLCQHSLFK

[3] = molecular target: Aurora kinase B/Inner centromere protein (Homo sapiens) (UniProt Q96GD4+Q9NQS7); assay: Inhibition of human AURKB/INCENP; type: protein-complex assay
[4] = molecular target: Platelet-derived growth factor receptor beta (Homo sapiens) (UniProt P09619); assay: Inhibition of recombinant human GST-tagged PDGFR-beta (557-end residues) transphosphorylation activity expressed in baculovirus infected Sf9 cells using poly[Glu:Tyr] (4:1) as substrate after 60 mins
[5] = Cmax in NOD/SCID mouse at 0.5 mg/kg, po administered as single dose by LC-MS/MS method; type: ADME, organism-based; design: dose 0.5 mg/kg, route oral; settings: in vivo
Mus musculus [6] = assay: Toxicity in NOD/SCID mouse assessed as phenotypic changes at 0.5 mg/kg, po administered as single dose; type: organism-based; settings: in vivo
Mus musculus [7] = assay: Toxicity in NOD/SCID mouse assessed as phenotypic changes at 0.5 mg/kg, ip administered as single dose; type: organism-based; settings: in vivo
[8] = Tmax in NOD/SCID mouse at 40 mg/kg, ip administered as single dose by LC-MS/MS method; type: ADME, organism-based; settings: in vivo
[9] = AUC (0 to 24 hrs) in NOD/SCID mouse at 10 mg/kg, ip administered twice by LC-MS/MS method; type: ADME, organism-based; design: time < 24 hr, dose 10 mg/kg, route intraperitoneal; settings: in vivo
Mus musculus [10] = assay: Toxicity in NOD/SCID mouse assessed as phenotypic changes at 10 mg/kg, ip administered once daily for 18 days measured after 1 hr last dose; type: organism-based; settings: in vivo
Mus musculus [11] = assay: Toxicity in NOD/SCID mouse assessed as change in body weight at 10 mg/kg, ip administered once daily for 18 days measured after 1 hr last dose; type: organism-based; settings: in vivo
Mus musculus [12] = assay: In vivo inhibition of ERK1/2 phosphorylation at Thr202/Tyr204 residue in NOD/SCID mouse tumor xenografted with HER2-amplified human HCC1954 cells at 10 mg/kg, ip administered once daily for 18 days measured after 1 hr last dose; type: functional, organism-based
Mus musculus [13] = assay: In vivo inhibition of SRC phosphorylation in NOD/SCID mouse tumor xenografted with HER2-amplified human HCC1954 cells at 10 mg/kg, ip administered once daily for 18 days measured after 1 hr last dose; type: functional, organism-based
[14] = molecular target: Tyrosine-protein kinase BTK (Homo sapiens) (UniProt Q06187); assay: Inhibition of human wild type full length BTK (M1 to S659 residues) expressed in mammalian expression system at 10 uM by KinomeScan method relative to control
[15] = molecular target: Epidermal growth factor receptor (Homo sapiens) (UniProt P00533); assay: Inhibition of human EGFR (R669 to V1011 residues) expressed in bacterial expression system at 10 uM by KinomeScan method relative to control
[16] = molecular target: Ephrin type-A receptor 1 (Homo sapiens) (UniProt P21709); assay: Inhibition of human wild type partial length EPHA1 (V588 to I913 residues) expressed in bacterial expression system at 10 uM by KinomeScan method relative to control
[17] = molecular target: Dual specificity mitogen-activated protein kinase kinase 4 (Homo sapiens) (UniProt P45985); assay: Inhibition of human wild type partial length MEK4 (S84 to D399 residues) expressed in mammalian expression system at 10 uM by KinomeScan method relative to control
[18] = molecular target: Hepatocyte growth factor receptor (Homo sapiens) (UniProt P08581); assay: Inhibition of human wild type partial length MET (D1010 to S1367 residues) expressed in bacterial expression system at 10 uM by KinomeScan method relative to control
[19] = system: Phosphatidylinositol 4,5-bisphosphate 3-kinase catalytic subunit alpha isoform (Homo sapiens), P42336 [H1047Y]; assay: Inhibition of human wild type partial length PIK3CA H1047Y mutant (R108 to N1068 residues) expressed in mammalian expression system at 10 uM by KinomeScan method relative to control
[20] = molecular target: Tyrosine-protein kinase SYK (Homo sapiens) (UniProt P43405); assay: Inhibition of human wild type partial length SYK (D354 to N635 residues) expressed in bacterial expression system at 10 uM by KinomeScan method relative to control
[21] = molecular target: Tyrosine-protein kinase Tec (Homo sapiens) (UniProt P42680); assay: Inhibition of human wild type partial length TEC (L341 to D620 residues) expressed in bacterial expression system at 10 uM by KinomeScan method relative to control
[22] = molecular target: Tyrosine-protein kinase TXK (Homo sapiens) (UniProt P42681); assay: Inhibition of human wild type partial length TXK (L238 to W527 residues) expressed in bacterial expression system at 10 uM by KinomeScan method relative to control
[23] = molecular target: Tyrosine-protein kinase ZAP-70 (Homo sapiens) (UniProt P43403); assay: Inhibition of human wild type partial length ZAP70 (D20 to G299 residues) expressed in mammalian expression system at 10 uM by KinomeScan method relative to control
Tyrosine-protein kinase ZAP-70 (Homo sapiens), sequence (P43403 whole entry, the tested form may be a part): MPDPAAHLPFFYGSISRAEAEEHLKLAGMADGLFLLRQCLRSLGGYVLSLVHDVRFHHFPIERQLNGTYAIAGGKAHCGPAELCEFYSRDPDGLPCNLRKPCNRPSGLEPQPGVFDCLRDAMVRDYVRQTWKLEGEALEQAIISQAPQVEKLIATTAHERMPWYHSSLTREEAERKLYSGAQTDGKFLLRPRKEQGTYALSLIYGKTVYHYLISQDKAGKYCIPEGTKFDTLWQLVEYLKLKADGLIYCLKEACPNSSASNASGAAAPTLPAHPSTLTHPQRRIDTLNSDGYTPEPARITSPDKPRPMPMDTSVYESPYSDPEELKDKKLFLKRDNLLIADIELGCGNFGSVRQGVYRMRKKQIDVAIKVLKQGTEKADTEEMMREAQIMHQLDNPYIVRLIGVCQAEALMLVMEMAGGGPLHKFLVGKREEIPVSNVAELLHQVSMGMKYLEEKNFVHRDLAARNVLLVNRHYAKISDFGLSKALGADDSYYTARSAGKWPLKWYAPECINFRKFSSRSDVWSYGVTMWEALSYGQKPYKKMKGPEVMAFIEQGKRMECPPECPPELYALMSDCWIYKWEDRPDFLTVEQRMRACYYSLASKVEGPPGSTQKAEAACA

Tyrosine-protein kinase TXK (Homo sapiens), sequence (P42681 whole entry, the tested form may be a part): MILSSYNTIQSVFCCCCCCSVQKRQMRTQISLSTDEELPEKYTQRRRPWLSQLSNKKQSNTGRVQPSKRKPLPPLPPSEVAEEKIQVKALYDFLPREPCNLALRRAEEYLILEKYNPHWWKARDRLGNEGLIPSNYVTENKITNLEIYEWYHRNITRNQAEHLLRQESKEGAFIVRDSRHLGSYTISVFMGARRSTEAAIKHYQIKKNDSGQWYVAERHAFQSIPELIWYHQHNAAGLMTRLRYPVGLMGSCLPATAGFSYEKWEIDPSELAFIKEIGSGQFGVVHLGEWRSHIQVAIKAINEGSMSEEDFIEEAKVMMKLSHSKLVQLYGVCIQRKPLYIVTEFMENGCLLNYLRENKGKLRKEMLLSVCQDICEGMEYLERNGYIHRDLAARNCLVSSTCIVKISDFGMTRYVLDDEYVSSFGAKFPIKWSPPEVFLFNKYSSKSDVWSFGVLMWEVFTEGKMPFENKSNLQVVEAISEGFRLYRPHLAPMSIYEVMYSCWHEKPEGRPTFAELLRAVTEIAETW
Platelet-derived growth factor receptor beta (Homo sapiens), sequence (P09619 whole entry): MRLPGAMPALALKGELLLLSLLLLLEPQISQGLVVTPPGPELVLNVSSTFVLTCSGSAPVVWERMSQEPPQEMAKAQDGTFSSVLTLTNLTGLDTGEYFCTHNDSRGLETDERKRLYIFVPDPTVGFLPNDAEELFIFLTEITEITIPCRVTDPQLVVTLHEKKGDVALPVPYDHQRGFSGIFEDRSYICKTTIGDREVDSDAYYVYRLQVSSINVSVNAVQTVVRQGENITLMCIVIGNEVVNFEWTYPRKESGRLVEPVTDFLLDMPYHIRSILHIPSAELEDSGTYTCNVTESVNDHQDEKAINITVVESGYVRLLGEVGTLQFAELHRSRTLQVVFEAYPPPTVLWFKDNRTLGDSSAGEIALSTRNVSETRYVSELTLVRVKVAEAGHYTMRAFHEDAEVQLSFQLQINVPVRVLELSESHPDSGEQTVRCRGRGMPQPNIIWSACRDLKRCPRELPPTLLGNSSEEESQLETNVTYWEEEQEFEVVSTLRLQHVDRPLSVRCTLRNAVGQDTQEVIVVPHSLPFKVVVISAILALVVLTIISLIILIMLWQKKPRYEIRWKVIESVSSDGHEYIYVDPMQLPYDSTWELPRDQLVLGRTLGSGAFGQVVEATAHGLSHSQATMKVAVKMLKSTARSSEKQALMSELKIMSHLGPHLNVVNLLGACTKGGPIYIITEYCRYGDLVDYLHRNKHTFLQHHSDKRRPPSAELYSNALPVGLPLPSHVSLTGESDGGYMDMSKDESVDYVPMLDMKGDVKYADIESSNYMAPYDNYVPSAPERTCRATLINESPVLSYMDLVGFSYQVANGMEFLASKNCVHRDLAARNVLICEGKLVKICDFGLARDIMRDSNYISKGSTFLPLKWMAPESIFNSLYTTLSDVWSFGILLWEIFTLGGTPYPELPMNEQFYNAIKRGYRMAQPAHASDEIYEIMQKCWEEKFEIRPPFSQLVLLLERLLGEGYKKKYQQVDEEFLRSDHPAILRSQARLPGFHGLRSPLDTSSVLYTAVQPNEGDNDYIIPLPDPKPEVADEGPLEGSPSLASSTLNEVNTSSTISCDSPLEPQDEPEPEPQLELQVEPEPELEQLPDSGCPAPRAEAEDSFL
Ephrin type-A receptor 1 (Homo sapiens), sequence (P21709 whole entry, the tested form may be a part): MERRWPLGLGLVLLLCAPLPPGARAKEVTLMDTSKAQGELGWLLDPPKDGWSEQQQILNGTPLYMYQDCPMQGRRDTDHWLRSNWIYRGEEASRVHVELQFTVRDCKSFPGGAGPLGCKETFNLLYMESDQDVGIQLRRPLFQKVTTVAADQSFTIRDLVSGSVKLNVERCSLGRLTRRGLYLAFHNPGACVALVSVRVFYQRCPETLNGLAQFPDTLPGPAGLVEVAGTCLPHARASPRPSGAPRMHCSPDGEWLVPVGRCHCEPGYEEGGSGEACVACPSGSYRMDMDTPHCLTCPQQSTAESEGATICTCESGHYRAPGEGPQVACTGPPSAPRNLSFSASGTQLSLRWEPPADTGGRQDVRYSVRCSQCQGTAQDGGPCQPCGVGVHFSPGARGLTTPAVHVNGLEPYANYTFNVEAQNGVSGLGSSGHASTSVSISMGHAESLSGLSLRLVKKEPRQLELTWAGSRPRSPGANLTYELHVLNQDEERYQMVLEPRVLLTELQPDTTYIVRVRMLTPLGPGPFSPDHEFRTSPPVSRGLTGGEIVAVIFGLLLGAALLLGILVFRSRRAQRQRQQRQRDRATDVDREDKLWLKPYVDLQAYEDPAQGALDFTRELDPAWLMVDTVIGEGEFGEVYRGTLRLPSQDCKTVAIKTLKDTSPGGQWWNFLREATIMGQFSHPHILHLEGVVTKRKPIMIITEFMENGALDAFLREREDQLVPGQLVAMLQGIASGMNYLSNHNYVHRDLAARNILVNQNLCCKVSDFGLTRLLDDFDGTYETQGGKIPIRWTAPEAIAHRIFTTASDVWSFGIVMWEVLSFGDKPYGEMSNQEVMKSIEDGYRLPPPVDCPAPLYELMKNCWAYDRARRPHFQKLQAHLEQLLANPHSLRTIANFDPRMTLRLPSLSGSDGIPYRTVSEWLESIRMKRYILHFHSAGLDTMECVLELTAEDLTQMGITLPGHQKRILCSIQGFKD
Dual specificity mitogen-activated protein kinase kinase 4 (Homo sapiens), sequence (P45985 whole entry, the tested form may be a part): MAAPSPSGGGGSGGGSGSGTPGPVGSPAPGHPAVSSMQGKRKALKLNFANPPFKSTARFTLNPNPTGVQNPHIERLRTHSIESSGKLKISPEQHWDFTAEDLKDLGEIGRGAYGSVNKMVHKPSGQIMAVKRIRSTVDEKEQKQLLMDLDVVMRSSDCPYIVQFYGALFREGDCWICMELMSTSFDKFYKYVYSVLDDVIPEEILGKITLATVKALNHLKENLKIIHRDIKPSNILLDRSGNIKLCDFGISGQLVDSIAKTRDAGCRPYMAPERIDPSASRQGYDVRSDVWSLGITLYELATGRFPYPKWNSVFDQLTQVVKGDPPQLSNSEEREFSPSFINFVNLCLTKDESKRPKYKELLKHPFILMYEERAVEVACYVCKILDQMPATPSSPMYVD
Tyrosine-protein kinase Tec (Homo sapiens), sequence (P42680 whole entry, the tested form may be a part): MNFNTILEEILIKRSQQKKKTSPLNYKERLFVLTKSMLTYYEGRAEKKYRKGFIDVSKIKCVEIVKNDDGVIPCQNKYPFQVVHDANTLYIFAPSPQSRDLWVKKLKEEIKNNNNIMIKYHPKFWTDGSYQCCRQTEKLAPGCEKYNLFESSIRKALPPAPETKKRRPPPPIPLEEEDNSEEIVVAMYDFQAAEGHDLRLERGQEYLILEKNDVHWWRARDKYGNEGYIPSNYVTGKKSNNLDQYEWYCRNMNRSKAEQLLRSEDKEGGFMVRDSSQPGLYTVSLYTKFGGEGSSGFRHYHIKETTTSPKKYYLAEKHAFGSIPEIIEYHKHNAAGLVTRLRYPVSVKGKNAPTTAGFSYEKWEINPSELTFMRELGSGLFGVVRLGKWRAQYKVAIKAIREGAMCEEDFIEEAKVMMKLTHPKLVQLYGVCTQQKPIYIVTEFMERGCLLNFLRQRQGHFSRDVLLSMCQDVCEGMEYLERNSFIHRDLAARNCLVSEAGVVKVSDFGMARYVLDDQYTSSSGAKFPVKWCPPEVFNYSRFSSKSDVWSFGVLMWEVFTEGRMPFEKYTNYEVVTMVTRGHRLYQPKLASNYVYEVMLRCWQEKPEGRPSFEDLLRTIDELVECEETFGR
Tyrosine-protein kinase BTK (Homo sapiens), sequence (Q06187 whole entry, the tested form may be a part): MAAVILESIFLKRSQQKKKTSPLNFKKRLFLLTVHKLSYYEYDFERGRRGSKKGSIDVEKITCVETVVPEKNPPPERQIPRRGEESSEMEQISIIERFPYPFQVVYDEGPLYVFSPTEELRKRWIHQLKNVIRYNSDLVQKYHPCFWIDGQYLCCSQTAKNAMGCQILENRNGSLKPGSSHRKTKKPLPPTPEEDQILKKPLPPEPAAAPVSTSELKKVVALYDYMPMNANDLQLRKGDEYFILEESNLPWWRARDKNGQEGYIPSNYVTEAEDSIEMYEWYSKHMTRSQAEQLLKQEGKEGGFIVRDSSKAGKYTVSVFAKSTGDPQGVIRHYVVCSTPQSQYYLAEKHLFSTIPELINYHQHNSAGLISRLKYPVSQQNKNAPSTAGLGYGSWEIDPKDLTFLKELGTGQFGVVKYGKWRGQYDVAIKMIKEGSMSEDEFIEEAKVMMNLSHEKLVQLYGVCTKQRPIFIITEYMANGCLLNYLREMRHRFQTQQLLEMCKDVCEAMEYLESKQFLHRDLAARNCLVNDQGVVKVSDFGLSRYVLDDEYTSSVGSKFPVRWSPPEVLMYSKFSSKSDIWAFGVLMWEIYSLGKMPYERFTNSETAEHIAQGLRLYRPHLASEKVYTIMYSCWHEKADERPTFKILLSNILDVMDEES

inhibition [1]: inactive
inhibition [2]: inactive
inhibition [3]: inactive
inhibition [4]: inactive
Cmax [5]: 470 nM
Tmax [8]: 2 h
AUC(0-t) at 24 h [9]: 70.8 µM·h
inhibition [14]: 10%
inhibition [15]: 8%
inhibition [16]: 9%
inhibition [17]: 0%
inhibition [18]: 40%
inhibition [19]: 8%
inhibition [20]: 10%
inhibition [21]: 9%
inhibition [22]: 8%
inhibition [23]: 0%
Compound: Cc1nc2nc(Sc3ccccc3)cnc2cc1NC(=O)Nc1ccccc1
Activity (T47D): >50%
IC50 (MDA-MB-231): 6.1 µM
IC50 (SK-BR-3): 1.8 µM
Activity (Mus musculus [6]): Non-Toxic
Activity (Mus musculus [7]): Non-Toxic
Activity (Mus musculus [10]): Non-Toxic
Activity (Mus musculus [11]): Non-Toxic
inhibition (Mus musculus [12]): Active
inhibition (Mus musculus [13]): Active
